Data from EPA's ToxValDB 9.5 (doi:10.2903/j.efsa.2012.2496).

Key:
Canidae = settings: oral, Dog Other, organ weight
Mus musculus = settings: subchronic; duration: 90 days; oral; organ weight
Oryctolagus sp. = settings: developmental; development

C=CCSC(=O)n1c(N)c(-c2ccccc2C)c(=O)n1C(C)C [Fenpyrazamine]
NOAEL (Canidae; chronic, duration: 1 years): 25 mg/kg-day | NOAEL (Canidae; subchronic, duration: 90 days): 25 mg/kg-day | LC50 (Colinus virginianus; acute, oral, diet, mortality): > 954 mg/kg-day | LD50 (Colinus virginianus; acute, oral, mortality): > 2000 mg/kg-day | NOEC (Colinus virginianus; reproduction developmental): 82.9 mg/kg-day | NOAEL (Mus musculus): 28 mg/kg-day | NOAEL (Oryctolagus sp.): 30 mg/kg-day | LD50 (Rattus norvegicus; acute, oral, mortality): > 2000 mg/kg-day | NOAEL (Rattus norvegicus; chronic, duration: 2 years, M, histopathology: nonneoplastic): 12.7 mg/kg-day | NOAEL (Rattus norvegicus; reproduction developmental, F, organ weight): 20.3 mg/kg-day | NOAEL (Rattus norvegicus; reproduction developmental, M, organ weight): 20 mg/kg-day | NOEL (Rattus norvegicus; reproduction developmental, body weight): 28.5 mg/kg-day
